Laboratory results taken from patent US20210346357A1 (priority 2020, published 2021).

System: IL-2 stimulated pSTAT5 in Tall-1 T cells (JAK1/3)
Experiment: Inhibition of IL-2 stimulated pSTAT5 in Tall-1 T cells
Type: cell-based
Details: Homo sapiens, IL-2 300 ng/mL, AlphaLisa pSTAT5, read-out: Tall-1 pIC50 (converted)
Procedure: Assay 2: Inhibition of IL-2 Stimulated pSTAT5 in Tall-1 T Cells
The potency of test compounds for inhibition of interleukin-2 (IL-2) stimulated STATS phosphorylation was measured in the Tall-1 human T cell line (DSMZ) using AlphaLisa. Because IL-2 signals through JAK1/3, this assay provides a measure of JAK1/3 cellular potency.
Phosphorylated STATS was measured via the AlphaLISA SureFire Ultra pSTAT5 (Tyr694/699) kit (PerkinElmer).
Human T cells from the Tall-1 cell line were cultured in a 37° C., 5% CO2 humidified incubator in RPMI (Life Technologies) supplemented with 15% Heat Inactivated Fetal Bovine Serum (FBS, Life Technologies), 2mM Glutamax (Life Technologies), 25 mM HEPES (Life Technologies) and 1X Pen/Strep (Life Technologies). […] Phosphorylated STATS was measured via the pSTAT5 AlphaLisa kit (PerkinElmer). […] Luminescence was measured with excitation at 689 nm and emission at […] using an EnVision plate reader (PerkinElmer) under green filtered <100 lux light.
To determine the inhibitory potency of test compounds in response to IL-2, the average emission intensity of beads bound to pSTAT5 was measured in a human T cell line. IC50 values were determined from analysis of the inhibition curves of signal intensity versus compound concentration. Data are expressed as pIC50 (negative decadic logarithm IC50) values (mean±standard deviation).

## CCc1cc(O)ccc1-c1ccc2c(-c3nc4c([nH]3)CN(C(C)C)[C@H](C(=O)N3CC(N(C)C)C3)C4)n[nH]c2c1 [Compound 1, (S)-(3-(dimethylamino)azetidin-1-yl)(2-(6-(2-ethyl-4-hydroxyphenyl)-1H-indazol-3-yl)-5-isopropyl-4,5,6,7-tetrahydro-3H-imidazo[4,5-c]pyridin-6-yl)methanone]
  IC50: 2.51 nM
